In patent US11311523B2, “Pyridinone compound and use thereof” (KYUSHU UNIVERSITY, NATIONAL UNIVERSITY CORPORATION, priority 2015, dated 2022):

Experiments:
HT-1080 cells = assay: inhibition of macropinocytosis (TMR-dextran uptake); assay type: cell-based, human
Protocol: (§1) Pharmacological Test 5 (Experiment of Inhibition of Macropinocytosis of Cancer Cells)
(§2) Macropinocytosis is a phenomenon in which cells take up various substances together with extracellular fluid while extending cellular membranes. Remodeling of actin cytoskeleton through Rac activity is known to be important.
(§3) One hundred and fifty microliters of 4×10^4 3LL cells or HT-1080 cells were seeded on the glass portion of fibronectin-coated glass-bottom culture dishes. After 16-hour culture at 37° C., the medium was changed to DMEM (serum free) and cultured for 24 hours to allow the cells to be serum-starved. Subsequently, the medium was changed to 2 mL of serum-free medium containing DMSO alone or DMSO in which each pyridinone compound was dissolved, followed by pretreatment for 1 hour. The final concentration of DMSO was adjusted to 0.2%.
(§4) The cells were added to 180 μL of medium with TMR-dextran (final concentration: 500 μg/mL)-containing DMEM (with 10% FBS) containing DMSO alone or DMSO in which a predetermined concentration of each pyridinone compound was dissolved, as in the case above, followed by incubation at 37° C. for 1 hour. Thereafter, the cells were fixed by 60-minute incubation at room temperature in a 4% paraformaldehyde solution. […] The macropinocytosis activity was measured based on the number of TMR-dextran spots per cell. […]

3LL cells = assay: as above; assay type: cell-based, mouse
Protocol: as §1, §2, §3, §4

[1] = mouse body weight in the lung metastasis experiment; assay type: in vivo; conditions: 0.2, 0.6 or 2 mg/mouse iv, FIG. 17(D)
Protocol: (§5) Pharmacological Test 8 (Experiment for Inhibition of Lung Metastasis of Mouse Melanoma Cells)
(§6) Mouse melanoma B16F10 cells suspended in 200 μL of PBS(−) were injected (2.5 or 5×10^5 cells per mouse) into the tail vein of C57BL/6 mice (6 weeks old, female). […] For a control group, an equivalent amount of a solvent (a liquid mixture of PBS/CremophoreEL/ethanol (6:1:1)) alone was administered. The administration was performed 4 times in total: immediately before the cell transplantation, and day 1, day 3, and day 5 after the transplantation. Fourteen days after the first administration, the lung was excised from each mouse, and the number of tumor metastatic foci at the lung surface was counted.

[2] = tested on: human colon cancer cell line (DLD-1); assay: cellular invasion inhibition assay (Matrigel chamber); assay type: cell-based; conditions: FIG. 12(D)
Protocol: Pharmacological Test 2 (Cellular Invasion Inhibition Assay)
Three hundred microliters of a suspension of a mouse lung carcinoma cell line (3LL), a human fibrosarcoma cell line (HT-1080), or a human colon cancer cell line (DLD-1) in DMEM (serum free) was placed in the upper chamber with Matrigel (BD Biosciences) equilibrated with DMEM (serum free) for 120 minutes, while 500 μL of DMEM (with 10% FCS) was placed in the lower chamber. Each pyridinone compound or CPYPP dissolved at a predetermined concentration in DMSO was added to the culture media in both the upper and lower chambers. As a control, DMSO alone was added to the media. In all of the experiments, the final DMSO concentration was adjusted to 0.2%.
After the resulting products were cultured at 37° C. under 5% CO2 for 22 hours, the chambers were removed, and the culture media were removed. […] After staining, the inserts were cut out with a blade to prepare slides, and the cells were counted under an optical microscope.
The results were evaluated based on percent cell invasion (%: Invasion) and percent inhibition (%: inhibition). The percent cell invasion was obtained by converting the number of invading cells under each condition to percentage, taking the number of invading cells in the control, to which DMSO was added alone, as 100%; and the percent inhibition was obtained by deducting the percent cell invasion from 100.

[3] = tested on: mouse melanoma B16F10 cells; assay: inhibition of lung metastasis of mouse melanoma cells; assay type: in vivo
Protocol: as §5, §6

SMILES	inhibition of macropinocytosis (HT-1080 cells)	inhibition of macropinocytosis (3LL cells)	mouse body weight [1]	inhibition of DLD-1 cell invasion [2]	metastasis of melanoma cells to the lung ([3]; C57BL/6 mice, 2 mg/mouse iv, 4 times, FIG. 17(B))	number of cells that underwent metastasis to the lung, reduced to ([3]; dose of about 0.2 mg to a mouse, iv 4 times, FIG. 17(C))
O=C(Cn1cc(S(=O)(=O)N2CCCC2)ccc1=O)c1ccc(-c2ccc3ccccc3c2)cc1 [TS-28, 1-(2-(4-(naphthalen-2-yl)phenyl)-2-oxoethyl)-5-(pyrrolidin-1-ylsulfonyl)pyridin-2(1H)-one]	inhibit macropinocytosis in 3LL cells and HT-1080 cells in a concentration-dependent manner	inhibit macropinocytosis in 3LL cells and HT-1080 cells in a concentration-dependent manner	–	–	–	–
O=C(Cn1cc(S(=O)(=O)N2CCCC2)ccc1=O)c1ccc(-c2cccc(C(F)(F)F)c2)cc1 [TS-45, 1-(2-oxo-2-(3′-(trifluoromethyl)-[1,1′-biphenyl]-4-yl)ethyl)-5-(pyrrolidin-1-ylsulfonyl)pyridin-2(1H)-one]	inhibit macropinocytosis in 3LL cells and HT-1080 cells in a concentration-dependent manner	inhibit macropinocytosis in 3LL cells and HT-1080 cells in a concentration-dependent manner	not affected	inhibits DLD-1 cell invasion	significantly inhibited	about 20%
